This experiment has as its system patients receiving propofol during procedural sedation. To be noted: 23 patients; per patient, average of the pharmacokinetic-model effect-site concentrations at end of procedure with all boluses and with the last bolus removed.

Each structure is given as a SMILES string.

From the text: The start and end of the procedure were marked by the clinical staff who collected the data. The average of the “all drugs” value and the “last drug removed” value at the time of the end of the procedure constitutes, in this illustrative embodiment, an estimate of the titration threshold that the clinician aims to remain above between the start and end of the procedure.
The titration threshold for each patient was established as described in connection with FIG. 17, namely: the start and end of the procedure were marked by the clinical staff who collected the data; the end-procedure effect-site concentration, shown on the y-axis, of each patient was estimated with all drug administrations, and again without the final bolus administration; and the average of these two values was taken as the estimated titration threshold for that patient. […] The titration threshold is estimated at the time the procedure ends since the proceduralist deems it necessary to administer a final bolus in order to render the patient's sedation level sufficient to endure the procedure.

Consider `CC(C)c1cccc(C(C)C)c1O` [propofol], for which the “mean of the estimated titration thresholds (end-procedure effect-site concentration)” value is on record as 1.72 micrograms/milliliter.

Values taken from patent US11972843B2, “Systems and methods for predicting adverse events and assessing level of sedation during medical procedures” (Massachusetts Institute of Technology, priority 2015, dated 2024).
